According to US20040029927A1, “Use of a compound in providing refreshedness on waking and a method for the treatment of grogginess therewith” (The Boots Company PLC, priority 2001, published 2004):
Where a name gives a salt, the structure may show the parent alone.

Assays:
[1] = test system: patients with temporary sleep disturbance; assay: Clinical trial, Loughborough sleep log: feeling of refreshedness 15 minutes after waking (5-point scale); assay type: in vivo, human
Procedure: (§1) The efficacy of triprolidine in enabling a patient to feel refreshed or alert upon waking after taking triprolidine prior to sleeptime was investigated using patients with a history of sleep disorders and utilising triprolidine prepared in accordance with example 3.
(§2) A multiple-dose, placebo-controlled, parallel-group, double-blind, randomised study investigating the effects of 2.5 mg and 5 mg triprolidine in patients with temporary sleep disturbance.
(§3) Male and Female candidates aged 18 years and above were recruited to one of five research centres by means of local advertising. Candidates were screened by means of a telephone questionnaire and selected candidates invited for interview at the research centre. Key inclusion criteria used to select candidates for the study were:
(§4) The candidates came to the research centre on Thursday or Friday and were fitted with a wrist actimeter (AW4 from Cambridge Technology) to establish a baseline measure for SDI and were provided with diary cards to record subjective assessments for the Loughborough Sleep Log and the Karolinska Sleepiness Scale. They returned to the investigational site on the Monday and were issued with the study compositions (2.5 mg triprolidine, 5 mg triprolidine or placebo). The investigator telephoned a central randomisation centre where the subject was randomised to a particular treatment group using a dynamic balanced randomisation algorithm. The subject was given three doses of their allocated study medication and instructed to take a single dose of two tablets 20 minutes before they intended to go to sleep on three consecutive evenings, commencing that evening. The diary cards for the Loughborough Sleep Log and Karolinska Sleepiness Scale were asked to be completed on waking.
Candidates were required to complete a questionnaire 15 minutes after awaking on the feeling of refreshedness assessed on a 5-point scale, the Loughborough sleep log.
(§5) In the trial, patients were tested during a seven day period and the results have been analysed for a mean of three days in the middle of this period. The effects of triprolidine at dose level 2.5 mg and 5.0 mg are compared with placebo in table 1.
Generally the treatment groups were well balanced in terms of the demographic data. Unless otherwise mentioned all group data was analysed using ANOVA. In two cases, namely, how the patient felt 15 minutes after awakening in the Loughborough Sleep Log and the Karolinska Sleepiness Scale at 20 minutes, the two variables were analysed using ANCOVA by including the weekend and the mean of Friday/Saturday/Sunday night as a covariate. The method was a closed test procedure (Williams' test). Each of the tests were to be conducted at the 5% level. The analysis of the secondary endpoints was similarly conducted using the Student's t-tests on parameter estimates taken from the analysis of variance model presented above.
(§6) The following is a copy of the “Loughborough sleep log questionnaire” which was used by patients in the study and provided the data for datasets a and b in table 1

[2] = test system: patients with temporary sleep disturbance; assay: Clinical trial, Loughborough sleep log: last night I slept (quality of sleep, 5-point scale); assay type: in vivo, human
Procedure: as §1, §2, §3, §4, §5, §6

[3] = test system: patients with temporary sleep disturbance; assay: Clinical trial, Karolinska 9-point sleepiness scale; assay type: in vivo, human
Procedure: as §1
(a) Karolinska scale as defined in: Int. J. Neuroscience 52 29-37 (1990); and
as §2, §3, §4
A daytime sleepiness assessment was also made 20 minutes, 2 hours and 4 hours after awaking on the Karolinska 9-point scale, i.e. the sleepiness scale.
Karolinska's sleepiness scale is set out below and the results for placebo, 2.5 and 5.0 mg doses of triprolidine are shown in tables 4 and 5. Table 4 relates to the number of individuals experiencing scales 1, 2 or 3 on the Karolinska scale and table 5 relates to the number of individuals experiencing scales 8 and 9.
Karolinska Sleepiness Scale
This will be completed 20 minutes after awakening and then at 2 hours and 4 hours following the first assessment on days 5, 6, 7 and 8.

volunteers = conditions: single doses 10 mg or 20 mg sustained release at bedtime; cited from earlier work

daytime sleepiness ([3]; either dose (2.5 mg or 5 mg)): lack of daytime sleepiness
SMILES: Cc1ccc(/C(=C\CN2CCCC2)c2ccccn2)cc1 [TRP.HCl.H2O]
15 mins after awaking (1- very refreshed 5- very tired), Mean ([1]; 2.5 mg, Mean of 3): 3.24
15 mins after awaking (1- very refreshed 5- very tired), Mean ([1]; 2.5 mg, Mon): 3.33
Awoke Very Refreshed or Refreshed Responses ([1]; 2.5 mg, Monday): 23%
15 mins after awaking (1- very refreshed 5- very tired), Mean ([1]; 2.5 mg, Tues): 3.23
Awoke Very Refreshed or Refreshed Responses ([1]; 2.5 mg, Tuesday): 23%
15 mins after awaking (1- very refreshed 5- very tired), Mean ([1]; 2.5 mg, Wed): 3.18
Awoke Very Refreshed or Refreshed Responses ([1]; 2.5 mg, Wednesday): 25.8%
feeling of refreshedness 15 minutes after waking versus placebo ([1]; 2.5 mg, p<0.05): more refreshed than those on placebo
15 mins after awaking (1- very refreshed 5- very tired), Mean ([1]; 5 mg, Mean of 3): 3.59
15 mins after awaking (1- very refreshed 5- very tired), Mean ([1]; 5 mg, Mon): 3.72
Awoke Very Refreshed or Refreshed Responses ([1]; 5 mg, Monday): 11.5%
15 mins after awaking (1- very refreshed 5- very tired), Mean ([1]; 5 mg, Tues): 3.56
Awoke Very Refreshed or Refreshed Responses ([1]; 5 mg, Tuesday): 8.2%
15 mins after awaking (1- very refreshed 5- very tired), Mean ([1]; 5 mg, Wed): 3.54
Awoke Very Refreshed or Refreshed Responses ([1]; 5 mg, Wednesday): 14.8%
last night I slept (1- extremely well, 5- extremely badly), Mean ([2]; 2.5 mg, Mean of 3): 2.73
last night I slept (1- extremely well, 5- extremely badly), Mean ([2]; 2.5 mg, Mon): 2.67
Last Night I Slept Extremely Well or Very Well Responses ([2]; 2.5 mg, Monday): 41.4%
last night I slept (1- extremely well, 5- extremely badly), Mean ([2]; 2.5 mg, Tues): 2.71
Last Night I Slept Extremely Well or Very Well Responses ([2]; 2.5 mg, Tuesday): 41.8%
last night I slept (1- extremely well, 5- extremely badly), Mean ([2]; 2.5 mg, Wed): 2.81
Last Night I Slept Extremely Well or Very Well Responses ([2]; 2.5 mg, Wednesday): 37.9%
last night I slept (1- extremely well, 5- extremely badly), Mean ([2]; 5 mg, Mean of 3): 2.69
last night I slept (1- extremely well, 5- extremely badly), Mean ([2]; 5 mg, Mon): 2.49
Last Night I Slept Extremely Well or Very Well Responses ([2]; 5 mg, Monday): 50.9%
last night I slept (1- extremely well, 5- extremely badly), Mean ([2]; 5 mg, Tues): 2.93
Last Night I Slept Extremely Well or Very Well Responses ([2]; 5 mg, Tuesday): 28.8%
last night I slept (1- extremely well, 5- extremely badly), Mean ([2]; 5 mg, Wed): 2.64
Last Night I Slept Extremely Well or Very Well Responses ([2]; 5 mg, Wednesday): 39.3%
percentage of people feeling alert, very alert or extremely alert on waking versus placebo ([3]; 2.5 mg): greater percentage
percentage of people feeling sleepy, some effort, or very sleepy, great effort to keep awake, on waking versus placebo ([3]; 2.5 mg): lower percentage
residual hangover effects/morning grogginess ([3]; 2.5 mg): no evidence of residual hangover effects/morning grogginess
I feel (i) sleepy, some effort or (ii) very sleepy, a great effort to keep awake (Karolinska scales 8 and 9) ([3]; 2.5 mg, Monday): 11.5%
I feel extremely alert, very alert or alert (Karolinska scales 1, 2 or 3) ([3]; 2.5 mg, Monday): 21.3%
I feel (i) sleepy, some effort or (ii) very sleepy, a great effort to keep awake (Karolinska scales 8 and 9) ([3]; 2.5 mg, Tuesday): 13.1%
I feel extremely alert, very alert or alert (Karolinska scales 1, 2 or 3) ([3]; 2.5 mg, Tuesday): 21.3%
I feel (i) sleepy, some effort or (ii) very sleepy, a great effort to keep awake (Karolinska scales 8 and 9) ([3]; 2.5 mg, Wednesday): 6.5%
I feel extremely alert, very alert or alert (Karolinska scales 1, 2 or 3) ([3]; 2.5 mg, Wednesday): 21.0%
I feel (i) sleepy, some effort or (ii) very sleepy, a great effort to keep awake (Karolinska scales 8 and 9) ([3]; 5 mg, Monday): 12.5%
I feel extremely alert, very alert or alert (Karolinska scales 1, 2 or 3) ([3]; 5 mg, Monday): 6.3%
I feel (i) sleepy, some effort or (ii) very sleepy, a great effort to keep awake (Karolinska scales 8 and 9) ([3]; 5 mg, Tuesday): 17.5%
I feel extremely alert, very alert or alert (Karolinska scales 1, 2 or 3) ([3]; 5 mg, Tuesday): 9.5%
I feel (i) sleepy, some effort or (ii) very sleepy, a great effort to keep awake (Karolinska scales 8 and 9) ([3]; 5 mg, Wednesday): 12.7%
I feel extremely alert, very alert or alert (Karolinska scales 1, 2 or 3) ([3]; 5 mg, Wednesday): 17.5%
sleep onset latency (time required to fall asleep) compared with placebo (volunteers): did not significantly alter
total sleep time compared with placebo (volunteers): no effect
wakefulness during sleep compared with placebo (volunteers): no effect
